Reference: patent US20060258597A1, “Antitumorigenic drug combination and dosing schedule” (priority 2005, published 2006)
[ ]: non-standard residue; d: D form. d(aIle) = CC[C@H](C)[C@@H](N)C(=O)O; Nva = CCC[C@H](N)C(=O)O; Sar = CNCC(=O)O

Tested on: HT-1080 cells
Assay: HT-1080 tumor growth inhibition in SCID mice (subcutaneous flank xenograft)
Format: in vivo
Conditions: peptide 120 Mpk BID SC and/or bevacizumab 3.0 Mpk twice per week SC; for % T/C: size of tumor treated/control
Description: Female SCID mice (Charles River Laboratories, Wilmington, Mass., USA) with an average body weight of 18.7 g were inoculated subcutaneously into the right flank with 0.1 mL of about 0.5×10^6 HT-1080 cells (1:1 matrigel) on a Friday. Day 3, post inoculation (Monday), the mice were ear tagged and randomized into groups of ten control and treated groups. The representative prodrug of a peptidomimetic of the second of the three Type-1 repeats of TSP-1, N-Ac-Sar-Gly-Val-D-alloIle-Thr-Nva-Ile-Arg-Pro-NHCH2CH3 (120 mpk), was administered twice per day (BID) during the dosing regimen, and the representative […] bevacizumab (3 mpk) was administrated each Monday and Wednesday during the same dosing regimen. Tumors were measured with calipers every Monday, Wednesday and Friday days beginning at day 3, post inoculation. Tumor volumes were calculated according to the formula V=L×W^2/2, wherein V is volume (mm^3), L is length and W is width. Antitumorigenesis was measured by percent tumor growth inhibition (TGI).
The term “mpk,” as used herein, means milligrams drug per kilogram mammal.
The term “SE,” as used herein, means standard error.
The term “T/C,” as used herein, means size of tumor (treated/control).
The term “SC,” as used herein, means subcutaneously.
The term “p-value,” as used herein, means confidence level of comparison to control.
Controls comprised vehicle only. Vehicles for N-Ac-Sar-Gly-Val-D-alloIle-Thr-Nva-Ile-Arg-Pro-NHCH2CH3 and bevacizumab were D5W (5% glucose in water) and isotonic saline (0.9% NaCl in water), respectively.

Ac-[Sar]GV[d(aIle)]T[Nva]IRP-NHEt
% TGI (percent tumor growth inhibition) (Day 7): 30.24% | % T/C (Day 7): 69.76% | % TGI (percent tumor growth inhibition) (Day 10): 41.61% | % T/C (Day 10): 58.39% | % TGI (percent tumor growth inhibition) (Day 12): 44.30% | % T/C (Day 12): 55.70% | % TGI (percent tumor growth inhibition) (Day 14): 48.79% | % T/C (Day 14): 51.21%

bevacizumab
% TGI (percent tumor growth inhibition) (Day 7): 33.68% | % T/C (Day 7): 66.32% | % TGI (percent tumor growth inhibition) (Day 10): 39.40% | % T/C (Day 10): 60.60% | % TGI (percent tumor growth inhibition) (Day 12): 39.25% | % T/C (Day 12): 60.75% | % TGI (percent tumor growth inhibition) (Day 14): 58.30% | % T/C (Day 14): 41.70%
